Experimental data from US20140357487A1, “PLANTS HAVING INCREASED TOLERANCE TO HERBICIDES” (BASF SE, priority 2011, published 2014).

What was measured:
Assay type in all cases: biochemical
[1] = target: T1, Arabidopsis HPPD (SEQ ID: 53) (Arabidopsis thaliana, UniProt P93836); test: HPPD activity assay, Arabidopsis wild-type HPPD; design: key to Normalized tolerance index TI: tolerance index relative to Arabidopsis wild-type HPPD (= 1)
T1 construct: His6 (N); made in house; host or cells: E. coli BL21 (DE3)
T1 sequence (P93836 1-445): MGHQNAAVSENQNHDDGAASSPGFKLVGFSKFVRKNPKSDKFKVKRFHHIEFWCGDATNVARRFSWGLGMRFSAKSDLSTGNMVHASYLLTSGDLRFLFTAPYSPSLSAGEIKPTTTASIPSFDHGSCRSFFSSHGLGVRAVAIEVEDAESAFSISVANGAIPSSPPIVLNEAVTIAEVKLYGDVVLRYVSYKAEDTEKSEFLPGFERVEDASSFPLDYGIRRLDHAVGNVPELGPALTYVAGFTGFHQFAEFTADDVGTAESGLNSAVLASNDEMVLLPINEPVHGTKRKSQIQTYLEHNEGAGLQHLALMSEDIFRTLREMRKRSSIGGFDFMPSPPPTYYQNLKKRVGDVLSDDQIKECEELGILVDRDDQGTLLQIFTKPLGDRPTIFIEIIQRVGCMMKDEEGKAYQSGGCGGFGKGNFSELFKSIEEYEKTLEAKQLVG
Procedure: (§1) HPPD produces homogentisic acid and CO2 from 4-hydroxyphenylpyruvate (4-HPP) and O2. The activity assay for HPPD is based on the analysis of homogentisic acid by reversed phase HPLC.
(§2) The assay mixture can contain 150 mM potassium phosphate buffer pH 7.0, 50 mM L-ascorbic acid, 1 μM FeSO4 and 7 μg of purified enzyme in a total volume of 1 ml.
(§3) Inhibitors are dissolved in DMSO (dimethylsulfoxide) to a concentration of 20 mM or 0.5 mM, respectively. From this stock solution serial five-fold dilutions are prepared in DMSO, which are used in the assay. The respective inhibitor solution accounts for 1% of the assay volume. […] After a preincubation of 30 min the reaction is started by adding 4-HPP to a final concentration of 0.1 mM. The reaction is allowed to proceed for 120 min at room temperature. The reaction is stopped by addition of 100 μl of 4.5 M phosphoric acid.
(§4) Activities are normalized by setting the uninhibited enzyme activity to 100%. IC50 values are calculated using non-linear regression.
(§5) The assay mixture can contain 150 mM potassium phosphate buffer pH 7.0, 50 mM L-ascorbic acid, 100 μM Catalase (Sigma-Aldrich), 1 μM FeSO4 and 0.2 units of purified HPPD enzyme in a total volume of 505 μl. 1 unit is defined as the amount of enzyme that is required to produce 1 nmol of HGA per minute at 20° C.
(§6) Inhibitors are dissolved in DMSO (dimethylsulfoxide) to a concentration of 0.5 mM. From this stock solution serial five-fold dilutions are prepared in DMSO, which are used in the assay. The respective inhibitor solution accounts for 1% of the assay volume. […] Activities are normalized by setting the uninhibited enzyme activity to 100%. IC50 values are calculated using non-linear regression.
(§7) Using methods which are described in the above examples or well known in the art, purified, recombinant wildtype HPPD enzymes are characterized with respect to their kinetic properties and sensitivity towards HPPD inhibiting herbicides. Apparent michaelis constants (Km) and maximal reaction velocities (Vmax) are calculated by non-linear regression with the software GraphPad Prism 5 (GraphPad Software, La Jolla, USA) using a substrate inhibition model.
(§8) Field performance of the HPPD enzyme, which is used as a herbicide tolerance trait, may depend not only on its lack of sensitivity towards HPPD inhibiting herbicides but also on its activity. To assess the potential performance of a herbicide tolerance trait a tolerance index (TI) is calculated using the following formula: […]
Easy comparison and ranking of each trait is enabled by normalizing tolerance indexes on Arabidopsis wild-type HPPD.

Hordeum HPPD (SEQ ID: 2) = target: T2, Hordeum HPPD (SEQ ID: 2) (Hordeum vulgare, UniProt O48604, A164G/R146V/R147D/R148G); test: HPPD activity assay, Hordeum wild-type HPPD
T2 construct: His (N); made in house; host or cells: E. coli BL21 (DE3)
T2 sequence (O48604 whole entry R146V/R147D/R148G/A164G): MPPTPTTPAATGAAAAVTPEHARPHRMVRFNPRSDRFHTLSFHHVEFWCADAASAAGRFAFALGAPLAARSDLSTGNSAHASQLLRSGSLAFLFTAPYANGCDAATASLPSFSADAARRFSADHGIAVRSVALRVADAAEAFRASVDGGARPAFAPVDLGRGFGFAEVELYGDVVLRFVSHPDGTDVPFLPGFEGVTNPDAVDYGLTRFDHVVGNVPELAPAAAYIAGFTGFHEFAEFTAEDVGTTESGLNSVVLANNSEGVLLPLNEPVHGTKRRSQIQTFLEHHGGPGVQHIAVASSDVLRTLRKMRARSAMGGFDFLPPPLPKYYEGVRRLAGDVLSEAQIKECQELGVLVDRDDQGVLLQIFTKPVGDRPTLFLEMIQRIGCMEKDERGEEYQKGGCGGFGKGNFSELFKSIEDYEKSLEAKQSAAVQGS
Procedure: as §1, §2, §3, §4, §5, §6, §7, §8

[2] = target: T3, Arabidopsis HPPD variant M335H, P336A, E363Q (Arabidopsis thaliana, UniProt P93836, E363Q/M335H/P336A); test: HPPD activity assay, Arabidopsis HPPD mutant M335H, P336A, E363Q; conditions: normalized on Arabidopsis wild-type HPPD
T3 construct: PCR-based site directed mutagenesis of pEXP5-NT/TOPO®-AtHPPD is done; His6 (N); made in house; host or cells: E. coli BL21 (DE3)
T3 sequence (P93836 whole entry M335H/P336A/E363Q): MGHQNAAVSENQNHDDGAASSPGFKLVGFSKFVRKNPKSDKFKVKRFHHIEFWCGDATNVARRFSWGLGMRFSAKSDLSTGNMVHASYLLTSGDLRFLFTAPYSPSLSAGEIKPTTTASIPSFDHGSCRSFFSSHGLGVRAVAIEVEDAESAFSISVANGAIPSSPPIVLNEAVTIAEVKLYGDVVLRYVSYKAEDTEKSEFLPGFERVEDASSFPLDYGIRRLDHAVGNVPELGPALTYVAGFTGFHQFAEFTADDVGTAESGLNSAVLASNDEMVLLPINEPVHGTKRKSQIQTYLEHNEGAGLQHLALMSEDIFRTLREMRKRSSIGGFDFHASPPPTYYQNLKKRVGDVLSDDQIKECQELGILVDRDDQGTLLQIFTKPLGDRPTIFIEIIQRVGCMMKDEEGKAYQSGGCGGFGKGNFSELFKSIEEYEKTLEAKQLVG
Procedure: as §1, §2, §3, §4, §5
Inhibitors are dissolved in DMSO (dimethylsulfoxide) to a concentration of 0.5 mM. […] IC50 values are calculated using non-linear regression. […]
Purified, mutant HPPD enzymes are obtained by the methods described above. […] Apparent michaelis constants (Km) and maximal reaction velocities (Vmax) are calculated by non-linear regression with the software GraphPad Prism 5 (GraphPad Software, La Jolla, USA) using a substrate inhibition model.
as §8, with “of the optimized HPPD enzyme,” for “of the HPPD enzyme,”, “herbicide tolerance trait may depend” for “herbicide tolerance trait, may depend”

[3] = target: T4, Hordeum HPPD variant G407C (Hordeum vulgare, UniProt O48604, A164G/G407C/R146V/R147D/R148G); test: HPPD activity assay, Hordeum HPPD mutant G407C; conditions: normalized on Hordeum wild-type HPPD
T4 construct: His (N); made in house; host or cells: E. coli BL21 (DE3)
T4 sequence (O48604 whole entry R146V/R147D/R148G/A164G/G407C): as the sequence (O48604 whole entry R146V/R147D/R148G/A164G) above, with G407C counted along it
Procedure: as §1, §2, §3, §4, §5, §6
(§9) Purified, mutant HPPD enzymes are obtained by the methods described above. Dose response and kinetic measurements are carried out using the described HPPD activity assay. Apparent michaelis constants (Km) and maximal reaction velocities (Vmax) are calculated by non-linear regression with the software GraphPad Prism 5 (GraphPad Software, La Jolla, USA) using a substrate inhibition model.
as §8, with “of the optimized HPPD enzyme,” for “of the HPPD enzyme,”, “herbicide tolerance trait may depend” for “herbicide tolerance trait, may depend”
(§10) Easy comparison and ranking of each trait is enabled by normalizing tolerance indexes on Arabidopsis or Hordeum wild-type HPPD.

[4] = target: T5, Hordeum HPPD variant L320N (Hordeum vulgare, UniProt O48604, A164G/L320N/R146V/R147D/R148G); test: HPPD activity assay, Hordeum HPPD mutant L320N; conditions: normalized on Hordeum wild-type HPPD
T5 construct: His (N); made in house; host or cells: E. coli BL21 (DE3)
T5 sequence (O48604 whole entry R146V/R147D/R148G/A164G/L320N): as the sequence (O48604 whole entry R146V/R147D/R148G/A164G) above, with L320N counted along it
Procedure: as §1, §2, §3, §4, §5, §6, §9
as §8, with “of the optimized HPPD enzyme,” for “of the HPPD enzyme,”, “herbicide tolerance trait may depend” for “herbicide tolerance trait, may depend”
as §10

[5] = target: T6, Hordeum HPPD variant L334E (Hordeum vulgare, UniProt O48604, A164G/L334E/R146V/R147D/R148G); test: HPPD activity assay, Hordeum HPPD mutant L334E; conditions: normalized on Hordeum wild-type HPPD
T6 construct: His (N); made in house; host or cells: E. coli BL21 (DE3)
T6 sequence (O48604 whole entry R146V/R147D/R148G/A164G/L334E): as the sequence (O48604 whole entry R146V/R147D/R148G/A164G) above, with L334E counted along it
Procedure: as §1, §2, §3, §4, §5, §6, §9
as §8, with “of the optimized HPPD enzyme,” for “of the HPPD enzyme,”, “herbicide tolerance trait may depend” for “herbicide tolerance trait, may depend”
as §10

[6] = target: T7, Hordeum HPPD variant L353M, P321R, L320N (Hordeum vulgare, UniProt O48604, L320N/L353M/P321R); test: HPPD activity assay, Hordeum HPPD mutant L353M, P321R, L320N; conditions: normalized on Hordeum wild-type HPPD
T7 construct: His (N); made in house; host or cells: E. coli BL21 (DE3)
T7 sequence (O48604 whole entry R146V/R147D/R148G/A164G/L320N/P321R/L353M): as the sequence (O48604 whole entry R146V/R147D/R148G/A164G) above, with L320N, P321R, L353M counted along it
Procedure: as §1, §2, §3, §4, §5, §6, §9
as §8, with “of the optimized HPPD enzyme,” for “of the HPPD enzyme,”, “herbicide tolerance trait may depend” for “herbicide tolerance trait, may depend”
as §10

[7] = target: T8, Hordeum HPPD variant L353M, P321R, V212I (Hordeum vulgare, UniProt O48604, L353M/P321R/V212I); test: HPPD activity assay, Hordeum HPPD mutant L353M, P321R, V212I; conditions: normalized on Hordeum wild-type HPPD
T8 construct: His (N); made in house; host or cells: E. coli BL21 (DE3)
T8 sequence (O48604 whole entry R146V/R147D/R148G/A164G/V212I/P321R/L353M): as the sequence (O48604 whole entry R146V/R147D/R148G/A164G) above, with V212I, P321R, L353M counted along it
Procedure: as §1, §2, §3, §4, §5, §6, §9
as §8, with “of the optimized HPPD enzyme,” for “of the HPPD enzyme,”, “herbicide tolerance trait may depend” for “herbicide tolerance trait, may depend”
as §10

[8] = target: T9, Hordeum HPPD variant L353M, P321R, V212I, L334E (Hordeum vulgare, UniProt O48604, L334E/L353M/P321R/V212I); test: HPPD activity assay, Hordeum HPPD mutant L353M, P321R, V212I, L334E; conditions: normalized on Hordeum wild-type HPPD
T9 construct: His (N); made in house; host or cells: E. coli BL21 (DE3)
T9 sequence (O48604 whole entry R146V/R147D/R148G/A164G/V212I/P321R/L334E/L353M): as the sequence (O48604 whole entry R146V/R147D/R148G/A164G) above, with V212I, P321R, L334E, L353M counted along it
Procedure: as §1, §2, §3, §4, §5, §6, §9
as §8, with “of the optimized HPPD enzyme,” for “of the HPPD enzyme,”, “herbicide tolerance trait may depend” for “herbicide tolerance trait, may depend”
as §10

[9] = target: T10, Hordeum HPPD variant V212L (Hordeum vulgare, UniProt O48604, A164G/R146V/R147D/R148G/V212L); test: HPPD activity assay, Hordeum HPPD mutant V212L; conditions: normalized on Hordeum wild-type HPPD
T10 construct: His (N); made in house; host or cells: E. coli BL21 (DE3)
T10 sequence (O48604 whole entry R146V/R147D/R148G/A164G/V212L): as the sequence (O48604 whole entry R146V/R147D/R148G/A164G) above, with V212L counted along it
Procedure: as §1, §2, §3, §4, §5, §6, §9
as §8, with “of the optimized HPPD enzyme,” for “of the HPPD enzyme,”, “herbicide tolerance trait may depend” for “herbicide tolerance trait, may depend”
as §10

[10] = target: T11, Hordeum HPPD variant L320Q (Hordeum vulgare, UniProt O48604, A164G/L320Q/R146V/R147D/R148G); test: HPPD activity assay, Hordeum HPPD mutant L320Q; conditions: normalized on Hordeum wild-type HPPD
T11 construct: His (N); made in house; host or cells: E. coli BL21 (DE3)
T11 sequence (O48604 whole entry R146V/R147D/R148G/A164G/L320Q): as the sequence (O48604 whole entry R146V/R147D/R148G/A164G) above, with L320Q counted along it
Procedure: as §1, §2, §3, §4, §5, §6, §9
as §8, with “of the optimized HPPD enzyme,” for “of the HPPD enzyme,”, “herbicide tolerance trait may depend” for “herbicide tolerance trait, may depend”
as §10

[11] = target: T12, Hordeum HPPD variant L320H, P321A (Hordeum vulgare, UniProt O48604, L320H/P321A); test: HPPD activity assay, Hordeum HPPD mutant L320H, P321A; conditions: normalized on Hordeum wild-type HPPD
T12 construct: His (N); made in house; host or cells: E. coli BL21 (DE3)
T12 sequence (O48604 whole entry R146V/R147D/R148G/A164G/L320H/P321A): as the sequence (O48604 whole entry R146V/R147D/R148G/A164G) above, with L320H, P321A counted along it
Procedure: as §1, §2, §3, §4, §5, §6, §9
as §8, with “of the optimized HPPD enzyme,” for “of the HPPD enzyme,”, “herbicide tolerance trait may depend” for “herbicide tolerance trait, may depend”
as §10

Row | SMILES | Km ([1]; Arabidopsis HPPD, substrate, read-out: michaelis constant Km (4-HPP)) [µM] | Km (Hordeum HPPD (SEQ ID: 2); Hordeum HPPD, substrate, read-out: michaelis constant Km (4-HPP)) [µM] | Normalized tolerance index TI ([1]; Arabidopsis HPPD Wildtype, normalized on Arabidopsis wild-type HPPD, Table 15) | Normalized tolerance index TI (Hordeum HPPD (SEQ ID: 2); Hordeum HPPD Wildtype, normalized on Hordeum wild-type HPPD) | Normalized tolerance index TI [2] | Normalized tolerance index TI [3] | Normalized tolerance index TI [4] | Normalized tolerance index TI [5] | Normalized tolerance index TI [6] | Normalized tolerance index TI [7] | Normalized tolerance index TI [8] | Normalized tolerance index TI [9] | Normalized tolerance index TI [10] | Normalized tolerance index TI [11]
1 | O=C(O)C(=O)Cc1ccc(O)cc1 [Inhibitor 4-HPP, 4-hydroxyphenylpyruvate, reference compound] | 13 | 26 |  |  |  |  |  |  |  |  |  |  |  | 
2 | CC1(C)c2cccnc2C(O)=C(c2ccc(Br)cc2C(F)(F)F)S1(=O)=O [Inhibitor 5, 7-[4-bromo-2-(trifluoromethyl)phenyl]-5,5-dimethyl-6,6-dioxo-thiopyrano[4,3-b]pyridin-8-ol] |  |  | 1 | 1 | 0.2 | 4.3 | 2.4 | 2.1 | 3.2 | 3.3 | 3.4 | 1.1 | 2.9 | 6.6
